Laboratory results taken from ChEMBL document CHEMBL3885881, “DrugMatrix”.

Species on record: Rattus norvegicus
Experiment: DrugMatrix - Regimen: Daily Repeat
Type: toxicity, organism-based, Sprague-Dawley
Design: regimen Daily Repeat, gender Male, age 6-8 weeks
Settings: in vivo, po, route oral GAVAGE, vehicle 100 % WATER; for ABSOLUTE BASOPHIL / ABSOLUTE EOSINOPHIL / ABSOLUTE LYMPHOCYTE / ABSOLUTE MONOCYTE / ABSOLUTE SEGMENTED NEUTROPHIL / BASOPHIL / EOSINOPHIL / ERYTHROCYTE COUNT / HEMATOCRIT / HEMOGLOBIN / LEUKOCYTE COUNT / LYMPHOCYTE / MEAN CORPUSCULAR HEMOGLOBIN / MEAN CORPUSCULAR HEMOGLOBIN CONCENTRATION / MEAN CORPUSCULAR VOLUME / MONOCYTE / NEUTROPHIL / NUCLEATED RED BLOOD CELLS / PLATELET COUNT: tissue Blood; for ALANINE AMINOTRANSFERASE / ALBUMIN / ALKALINE PHOSPHATASE / ASPARTATE AMINOTRANSFERASE / BLOOD UREA NITROGEN / CARBON DIOXIDE / CHLORIDE / CHOLESTEROL / CREATINE PHOSPHOKINASE / CREATININE / GLUCOSE / LACTATE DEHYDROGENASE / LIPASE / PHOSPHORUS / POTASSIUM / SODIUM / TOTAL BILIRUBIN / TOTAL PROTEIN / URIC ACID: tissue Plasma
[1] = 0 mg/kg, 72 h, dose level Control, time 3 day
[2] = 0 mg/kg, 120 h, dose level Control, time 5 day
[3] = 120 mg/kg, 72 h, dose level Low, time 3 day

`Cc1onc(-c2ccccc2Cl)c1C(=O)N[C@@H]1C(=O)N2[C@@H]1SC(C)(C)[C@@H]2C(=O)O` [CLOXACILLIN] was tested, and the “ABSOLUTE BASOPHIL” value [1] was 0 CELLS/uL, the “ABSOLUTE EOSINOPHIL” value [1] was 40 CELLS/uL and the “ABSOLUTE LYMPHOCYTE” value [1] was 13599.5 CELLS/uL. The “ABSOLUTE MONOCYTE” value [1] was 239.33 CELLS/uL, the “ABSOLUTE SEGMENTED NEUTROPHIL” value [1] was 1021.17 CELLS/uL and the BASOPHIL [1] was 0%. The EOSINOPHIL [1] was 0.33%, the “ERYTHROCYTE COUNT” value [1] was 5.71 x10E6/uL and the HEMATOCRIT [1] was 36.35%. The HEMOGLOBIN [1] was 14.05 G/DL, the “LEUKOCYTE COUNT” value [1] was 14.9 x10E3/uL and the LYMPHOCYTE [1] was 91%. The “MEAN CORPUSCULAR HEMOGLOBIN” value [1] was 24.62 pg, the “MEAN CORPUSCULAR HEMOGLOBIN CONCENTRATION” value [1] was 38.65 G/DL and the “MEAN CORPUSCULAR VOLUME” value [1] was 63.7 fL. For the same compound, the MONOCYTE [1] was 1.5%, the NEUTROPHIL [1] was 7.17% and the “NUCLEATED RED BLOOD CELLS” value [1] was 0.33 /100WBC. For the same compound, the “PLATELET COUNT” value [1] was 1225.5 x10E3/uL, the “ALANINE AMINOTRANSFERASE” value [1] was 48.5 u/L and the ALBUMIN [1] was 4.18 G/DL. For the same compound, the “ALKALINE PHOSPHATASE” value [1] was 390.83 u/L, the “ASPARTATE AMINOTRANSFERASE” value [1] was 89 u/L and the “BLOOD UREA NITROGEN” value [1] was 14.83 mg/dL. The “CARBON DIOXIDE” value [1] was 24.83 mmol/L, the CHLORIDE [1] was 100.83 MEQ/L and the CHOLESTEROL [1] was 72.5 mg/dL. For the same compound, the “CREATINE PHOSPHOKINASE” value [1] was 503 u/L, the CREATININE [1] was 0.2 mg/dL and the GLUCOSE [1] was 163 mg/dL. The “LACTATE DEHYDROGENASE” value [1] was 316.83 u/L, the LIPASE [1] was 9.83 u/L and the PHOSPHORUS [1] was 11.57 mg/dL. The POTASSIUM [1] was 6.16 MEQ/L, the SODIUM [1] was 142.62 MEQ/L and the “TOTAL BILIRUBIN” value [1] was 0.2 mg/dL. For the same compound, the “TOTAL PROTEIN” value [1] was 5.8 G/DL, the “URIC ACID” value [1] was 1.65 mg/dL and the “ABSOLUTE BASOPHIL” value [2] was 0 CELLS/uL. The “ABSOLUTE EOSINOPHIL” value [2] was 21 CELLS/uL, the “ABSOLUTE LYMPHOCYTE” value [2] was 14288.5 CELLS/uL and the “ABSOLUTE MONOCYTE” value [2] was 205.33 CELLS/uL. For the same compound, the “ABSOLUTE SEGMENTED NEUTROPHIL” value [2] was 968.5 CELLS/uL, the BASOPHIL [2] was 0% and the EOSINOPHIL [2] was 0.17%. The “ERYTHROCYTE COUNT” value [2] was 5.83 x10E6/uL, the HEMATOCRIT [2] was 36.53% and the HEMOGLOBIN [2] was 14.4 G/DL. For the same compound, the “LEUKOCYTE COUNT” value [2] was 15.48 x10E3/uL, the LYMPHOCYTE [2] was 92% and the “MEAN CORPUSCULAR HEMOGLOBIN” value [2] was 24.72 pg. For the same compound, the “MEAN CORPUSCULAR HEMOGLOBIN CONCENTRATION” value [2] was 39.43 G/DL, the “MEAN CORPUSCULAR VOLUME” value [2] was 62.68 fL and the MONOCYTE [2] was 1.33%. For the same compound, the NEUTROPHIL [2] was 6.5%, the “NUCLEATED RED BLOOD CELLS” value [2] was 0.17 /100WBC and the “PLATELET COUNT” value [2] was 1280.5 x10E3/uL. For the same compound, the “ALANINE AMINOTRANSFERASE” value [2] was 50 u/L, the ALBUMIN [2] was 4.28 G/DL and the “ALKALINE PHOSPHATASE” value [2] was 380.17 u/L. The “ASPARTATE AMINOTRANSFERASE” value [2] was 82.67 u/L, the “BLOOD UREA NITROGEN” value [2] was 15.33 mg/dL and the “CARBON DIOXIDE” value [2] was 27.17 mmol/L. The CHLORIDE [2] was 100.33 MEQ/L, the CHOLESTEROL [2] was 60.67 mg/dL and the “CREATINE PHOSPHOKINASE” value [2] was 441.5 u/L. For the same compound, the CREATININE [2] was 0.16 mg/dL, the GLUCOSE [2] was 146 mg/dL and the “LACTATE DEHYDROGENASE” value [2] was 189.33 u/L. The LIPASE [2] was 9.17 u/L, the PHOSPHORUS [2] was 11.67 mg/dL and the POTASSIUM [2] was 6.86 MEQ/L. For the same compound, the SODIUM [2] was 142.33 MEQ/L, the “TOTAL BILIRUBIN” value [2] was 0.2 mg/dL and the “TOTAL PROTEIN” value [2] was 6.12 G/DL. For the same compound, the “URIC ACID” value [2] was 1.82 mg/dL, the “ABSOLUTE BASOPHIL” value [3] was 0 CELLS/uL and the “ABSOLUTE EOSINOPHIL” value [3] was 0 CELLS/uL. For the same compound, the “ABSOLUTE LYMPHOCYTE” value [3] was 13421.33 CELLS/uL, the “ABSOLUTE MONOCYTE” value [3] was 92.33 CELLS/uL and the “ABSOLUTE SEGMENTED NEUTROPHIL” value [3] was 1186.33 CELLS/uL. For the same compound, the BASOPHIL [3] was 0%, the EOSINOPHIL [3] was 0% and the “ERYTHROCYTE COUNT” value [3] was 5.89 x10E6/uL. The HEMATOCRIT [3] was 36%, the HEMOGLOBIN [3] was 13.83 G/DL and the “LEUKOCYTE COUNT” value [3] was 14.7 x10E3/uL. For the same compound, the LYMPHOCYTE [3] was 90.67%, the “MEAN CORPUSCULAR HEMOGLOBIN” value [3] was 23.47 pg and the “MEAN CORPUSCULAR HEMOGLOBIN CONCENTRATION” value [3] was 38.4 G/DL. For the same compound, the “MEAN CORPUSCULAR VOLUME” value [3] was 61.07 fL, the MONOCYTE [3] was 0.67% and the NEUTROPHIL [3] was 8.67%. The “NUCLEATED RED BLOOD CELLS” value [3] was 0 /100WBC, the “PLATELET COUNT” value [3] was 1271.67 x10E3/uL and the “ALANINE AMINOTRANSFERASE” value [3] was 68 u/L. For the same compound, the ALBUMIN [3] was 4.1 G/DL, the “ALKALINE PHOSPHATASE” value [3] was 359 u/L and the “ASPARTATE AMINOTRANSFERASE” value [3] was 111 u/L. For the same compound, the “BLOOD UREA NITROGEN” value [3] was 15.33 mg/dL, the “CARBON DIOXIDE” value [3] was 23 mmol/L and the CHLORIDE [3] was 103 MEQ/L. The CHOLESTEROL [3] was 79.33 mg/dL, the “CREATINE PHOSPHOKINASE” value [3] was 603.33 u/L and the CREATININE [3] was 0.17 mg/dL. The GLUCOSE [3] was 150.33 mg/dL, the “LACTATE DEHYDROGENASE” value [3] was 726 u/L and the LIPASE [3] was 9 u/L. It also gave a PHOSPHORUS [3] of 13.1 mg/dL, a POTASSIUM [3] of 6.07 MEQ/L and an SODIUM [3] of 143.5 MEQ/L. The “TOTAL BILIRUBIN” value [3] was 0.17 mg/dL, the “TOTAL PROTEIN” value [3] was 5.77 G/DL and the “URIC ACID” value [3] was 1.8 mg/dL.
